System: HIV-1 LAI
Test: microbe, parasite or virus in culture
Settings: for Combination Indices at % HIV Inhibition (Confidence Interval) 50% / Combination Indices at % HIV Inhibition (Confidence Interval) 75% / Combination Indices at % HIV Inhibition (Confidence Interval) 90% / Overall Result (combined anti-HIV effect): Compound 1 + named drug; for Combination Indices at % HIV Inhibition (Confidence Interval) 50% / Combination Indices at % HIV Inhibition (Confidence Interval) 75% / Combination Indices at % HIV Inhibition (Confidence Interval) 90%: 95% confidence interval in parentheses; for Overall Result (combined anti-HIV effect): all ratios, MT-2 cells, HIV-1 LAI
Procedure: Virus and cell lines. The T-cell lines, MT-2 and PM-1 were obtained through the AIDS Research and Reference Reagent Program, NIAID, and were contributed by Dr. D. Richman and Dr. R. Gallo, respectively. Both cell lines were cultured in RPMI 1640 medium supplemented with 10% fetal bovine serum, 2 mM L-glutamine and sub-cultured twice a week. The LAI strain of HIV-1 was obtained from the Fred Hutchinson Cancer Research Center, and the Bal strain was from NIH. Both virus stocks were amplified and titered in MT-2 cells (LAI) and PM-1 cells (Bal) using a virus infectivity assay.
Drug Susceptibility and Cytotoxicity Assays. For drug susceptibility assays, MT-2 cells were infected with HIV-1 LAI (or PM-1 cells with HIV-1 Bal) at an MOI of 0.005, and seeded into 96-well microtiter plates (0.1×10^6 cells/ml) containing serial dilutions of test compounds. […] Each drug ratio consisted of an array of 3-fold serial dilutions, and was performed in quadruplicate. The plates were incubated at 37° C./5% CO2. The MT-2 cells infected with HIV-1 LAI were incubated for 5 days. On day-five post-infection, 20 μl from each well was harvested and quantitated by a reverse transcriptase (RT) assay, or in samples involving non-nucleoside RT inhibitors, an MTS assay. The PM-1 cells infected with HIV-1 Bal and used for studying the combinations with CCR5 inhibitors were incubated for six days. On day-six post-infection, 20 μl from each well was harvested, 20- and 50-fold diluted and quantitated by p24 assay. Cytotoxicity assays were performed using uninfected cells, exposed to the same drug combinations, and incubated for six days. Cell viability was determined by an MTS assay. The CC50 values were calculated by using the exponential form of the median effect equation as mentioned below for calculation of EC50.
Analysis of Drug Combination Effects. For determination of CI values, drugs were diluted in a fixed ratio and multiple ratios were analyzed. The drug serial dilutions spanned a range of concentrations near the EC50 value of each compound, so that equivalent antiviral activities could be compared. Concentration-response curves were estimated for each individual drug and every combination using the median-effect equation. The equation was fit using a nonlinear regression routine (Proc Nlin) in PC SAS version 8.01 (SAS Institute Inc., SAS Version 8.01, Cary, N.C.: SAS Institute Inc., 1990).
In this equation, Fa stands for “fraction affected,” and represents the fraction of the viral load that has been inactivated. […] ED50 is drug concentration that is expected to reduce the amount of virus by 50%, and m is a parameter that reflects the slope of the concentration-response curve.
To assess antiviral effects of different drug combination treatments, combination indices (CIs) were calculated according to Chou and Rideout. The combination index was computed as CI=[D]1/[Dm]1+[D]2/[Dm]2
In this equation [Dm]1 and [Dm]2 are the concentrations of drugs that would individually produce a specific level of effect, while [D]1 and [D]2 are the concentrations of drugs in combination that would produce the same level of effect.
Theoretically, additivity is implied if the CI is equal to one, synergy if the CI is less than one, and antagonism if the CI is greater than one. […] At best, we can construct a range that contains the likely values for the CI, given the noise in the data. In this report, these ranges are reported in parentheses next to each point estimate of the CI. […] If the range fell entirely above 1.0, we would infer antagonistic behavior. If the range were to include 1.0, we would infer additivity.
In carrying out the combination experiments below, the EC50 for Compound 1 and each comparator compound was determined during the course of each study, and used in the subsequent data analysis.

[1] = EC50 ratio 1:1 (Compound 1:comparator)
[2] = EC50 ratio 1:2.5 (Compound 1:comparator)
[3] = EC50 ratio 2.5:1 (Compound 1:comparator)
[4] = Human immunodeficiency virus 1, MT2, 120 h

Compound: enfuvirtide
- Combination Indices at % HIV Inhibition (Confidence Interval) 50% [1]: 0.47 (0.40, 0.54)
- Combination Indices at % HIV Inhibition (Confidence Interval) 75% [1]: 0.53 (0.42, 0.65)
- Combination Indices at % HIV Inhibition (Confidence Interval) 90% [1]: 0.60 (0.39, 0.81)
- Combination Indices at % HIV Inhibition (Confidence Interval) 50% [2]: 0.48 (0.37, 0.60)
- Combination Indices at % HIV Inhibition (Confidence Interval) 75% [2]: 0.60 (0.40, 0.80)
- Combination Indices at % HIV Inhibition (Confidence Interval) 90% [2]: 0.75 (0.35, 1.15)
- Combination Indices at % HIV Inhibition (Confidence Interval) 50% [3]: 0.35 (0.29, 0.40)
- Combination Indices at % HIV Inhibition (Confidence Interval) 75% [3]: 0.47 (0.37, 0.57)
- Combination Indices at % HIV Inhibition (Confidence Interval) 90% [3]: 0.63 (0.40, 0.86)
- Overall Result (combined anti-HIV effect): Synergistic
- EC50 (LAI): 1 nM

Compound: O=c1[nH]cnc2c1ncn2[C@H]1CC[C@@H](CO)O1 [Didanosine, didanosine]
- Combination Indices at % HIV Inhibition (Confidence Interval) 50% [1]: 0.31 (0.29, 0.32)
- Combination Indices at % HIV Inhibition (Confidence Interval) 75% [1]: 0.16 (0.15, 0.17)
- Combination Indices at % HIV Inhibition (Confidence Interval) 90% [1]: 0.08 (0.08, 0.09)
- Combination Indices at % HIV Inhibition (Confidence Interval) 50% [2]: 0.27 (0.23, 0.31)
- Combination Indices at % HIV Inhibition (Confidence Interval) 75% [2]: 0.31 (0.24, 0.38)
- Combination Indices at % HIV Inhibition (Confidence Interval) 90% [2]: 0.35 (0.23, 0.48)
- Combination Indices at % HIV Inhibition (Confidence Interval) 50% [3]: 0.15 (0.11, 0.19)
- Combination Indices at % HIV Inhibition (Confidence Interval) 75% [3]: 0.31 (0.22, 0.40)
- Combination Indices at % HIV Inhibition (Confidence Interval) 90% [3]: 0.65 (0.31, 0.98)
- Overall Result (combined anti-HIV effect): Synergistic
- EC50 [4]: 652 nM

Compound: Cc1cn([C@H]2C[C@H](N=[N+]=[N-])[C@@H](CO)O2)c(=O)[nH]c1=O [Zidovudine, zidovudine]
- Combination Indices at % HIV Inhibition (Confidence Interval) 50% [1]: 0.25 (0.17, 0.34)
- Combination Indices at % HIV Inhibition (Confidence Interval) 75% [1]: 0.53 (0.29, 0.78)
- Combination Indices at % HIV Inhibition (Confidence Interval) 90% [1]: 1.13 (0.24, 2.02)
- Combination Indices at % HIV Inhibition (Confidence Interval) 50% [2]: 0.46 (0.36, 0.56)
- Combination Indices at % HIV Inhibition (Confidence Interval) 75% [2]: 0.52 (0.36, 0.68)
- Combination Indices at % HIV Inhibition (Confidence Interval) 90% [2]: 0.59 (0.29, 0.89)
- Combination Indices at % HIV Inhibition (Confidence Interval) 50% [3]: 0.37 (0.28, 0.47)
- Combination Indices at % HIV Inhibition (Confidence Interval) 75% [3]: 0.49 (0.32, 0.67)
- Combination Indices at % HIV Inhibition (Confidence Interval) 90% [3]: 0.66 (0.28, 1.05)
- Overall Result (combined anti-HIV effect): Additive-
- EC50 [4]: 1 nM

Compound: Cc1cccc(C)c1OCC(=O)N[C@@H](Cc1ccccc1)[C@@H](O)C[C@H](Cc1ccccc1)NC(=O)[C@H](C(C)C)N1CCCNC1=O [Lopinavir, lopinavir]
- Combination Indices at % HIV Inhibition (Confidence Interval) 50% [1]: 0.47 (0.38, 0.56)
- Combination Indices at % HIV Inhibition (Confidence Interval) 75% [1]: 0.66 (0.48, 0.84)
- Combination Indices at % HIV Inhibition (Confidence Interval) 50% [2]: 0.89 (0.73, 1.05)
- Combination Indices at % HIV Inhibition (Confidence Interval) 75% [2]: 0.90 (0.67, 1.13)
- Combination Indices at % HIV Inhibition (Confidence Interval) 90% [2]: 1.00 (0.60, 1.40)
- Combination Indices at % HIV Inhibition (Confidence Interval) 50% [3]: 0.29 (0.25, 0.33)
- Combination Indices at % HIV Inhibition (Confidence Interval) 75% [3]: 0.37 (0.30, 0.44)
- Combination Indices at % HIV Inhibition (Confidence Interval) 90% [3]: 0.51 (0.37, 0.65)
- Overall Result (combined anti-HIV effect): Additive-
- EC50 [4]: 4 nM

Compound: Cc1ccnc2c1NC(=O)c1cccnc1N2C1CC1 [Nevirapine, nevirapine]
- Combination Indices at % HIV Inhibition (Confidence Interval) 50% [1]: 0.19 (0.15, 0.23)
- Combination Indices at % HIV Inhibition (Confidence Interval) 75% [1]: 0.22 (0.16, 6.28)
- Combination Indices at % HIV Inhibition (Confidence Interval) 90% [1]: 0.26 (0.15, 0.38)
- Combination Indices at % HIV Inhibition (Confidence Interval) 50% [2]: 0.48 (0.35, 0.62)
- Combination Indices at % HIV Inhibition (Confidence Interval) 75% [2]: 0.66 (0.40, 0.92)
- Combination Indices at % HIV Inhibition (Confidence Interval) 90% [2]: 0.92 (0.35, 1.49)
- Combination Indices at % HIV Inhibition (Confidence Interval) 50% [3]: 0.58 (0.48, 0.67)
- Combination Indices at % HIV Inhibition (Confidence Interval) 75% [3]: 0.99 (0.76, 1.22)
- Combination Indices at % HIV Inhibition (Confidence Interval) 90% [3]: 1.71 (1.09, 2.33)
- Overall Result (combined anti-HIV effect): Additive-
- Overall Result (combined anti-HIV effect) (listed as nevapiradine): additive-synergystic
- EC50 [4]: 107 nM

Reference: patent publication US7776863B2, “Methods of treating HIV infection” (priority 2004, dated 2010)
